Reference: patent publication US7063946B2, “Methods, reagents, kits and apparatus for protein function analysis” (Meso Scale Technologies, LLC., priority 2001, dated 2006)

How the values were obtained:
Fgfr4 = target: T1, Fgfr4 (Mus musculus, UniProt Q03142); test: Kinase inhibitor profiling, pEY phosphorylation; assay type: biochemical
T1 construct: specificity data for proteins generated from a library of eighteen full-length clones; biotin on random lysines (biotin-Lys-tRNA); host or cells: rabbit reticulocyte lysate, coupled transcription/translation (TnT, Promega)
Description: (§1) Proteins were produced in an in vitro transcription and translation reaction. […] The unbound components of the reaction containing endogenous kinases were removed by three washes with TT-buffer (25 mM Tris-HCl buffer pH 7.4 and 0.004% Triton), two five minutes washings with high-salt wash buffer (25 mM Tris-HCl buffer pH 7.4, 0.004% Triton, 1M NaCl and 5 mM DTT) and 3 more washes with TT-buffer. To these immobilized and purified proteins a tyrosine kinase substrate, 5 nM pEY (poly Glu-Tyr, Sigma, MO), was added in a 50 μl reaction solution containing 5 mM MgCl2, 5 mM MnCl2, 100 μM ATP, 25 mM Tris-HCl buffer pH 7.4, 0.05 mM Na3VO4, 0.004% TritonX-100, 2 mM DTT and EDTA-free protease inhibitor (Roche Molecular Biochemicals). This mixture was incubated with shaking at room temperature overnight to allow phosphorylation of the pEY substrate by the immobilized kinases. Following this incubation, 45 μl of this mixture was transferred to a streptavidin or avidin-coated NPT IPR plate coated with biotinylated anti-phosphotyrosine antibody (PY20, Zymed labs, CA) followed by incubation for 30 minutes at room temperature to allow the binding of the phosphorylated pEY substrate to the PY20 coated NPT plate. Following this binding step, 50 ng Sulfo-TAG labeled anti-phosphotyrosine in buffer containing 25 mM Tris-HCl buffer pH 7.4, 5 mM MgCl2, 0.05 mM Na3VO4, 0.004% TritonX-100, 2 mM DTT and 0.05% IgG was added followed by incubation at room temperature for 30 mm. The unbound reagents were removed by one time washing with water, and the TAG label was detected in presence of 150 μl IPR assay buffer (0.4 mM Gly-Gly buffer, pH 7.8, 1 mM EDTA, 0.1 M TPA). The ECL signals were measured using an imaging plate reader.
(§2) Proteins were produced using 100 ng of plasmid DNA Mock (Luciferase, Promega) or tyrosine kinases (Fert2 IMAGE ID # 4485050, FGFR1 IMAGE ID # 4037899, Fgfr2 IMAGE ID # 2654352, Src IMAGE ID # 3156400, BMX IMAGE ID # 3919253, LCK IMAGE ID # 4191610, Epha7 IMAGE ID # 3991628, Ephb4 IMAGE ID # 4013934, Tek IMAGE ID # 3482498, HCK IMAGE ID # 4778819, BTK IMAGE ID # 4478463, CSK IMAGE ID # 4398416, SYK IMAGE ID # 3870426, FGR IMAGE ID # 4419973, PTK2B IMAGE ID # 4339456, FRK(IMAGE ID # 4515877, Kit IMAGE ID # 2644960, Fgfr-4 IMAGE ID # 4239139, NTRK3 IMAGE ID # 4181574, Kdr IMAGE ID # 4238984, Incyte Genomics, CA) and immobilized on SA or avidin coated NPT-IPR plates as described in previous examples. The unbound components of the translation reaction (including any endogenous kinases) were removed by 3 washes with TT-buffer (25 mM Tris-HCl buffer pH 7.4 and 0.004% Triton), two five minutes washes with high-salt wash buffer (25 mM Tris-HCl buffer pH 7.4, 0.004% Triton, 1M NaCl and 5 mM DTT) and 3 washes with TT-buffer. […] The mixture was incubated at room temperature for 10 mm before starting the kinase reaction by adding 25 μl of 200 μM ATP in buffer A. This mixture was incubated with intermittent shaking at room temperature for 2 hours to overnight to allow (a) phosphorylation of the pEY substrate and (b) autophosphorylation of the immobilized kinases. Autophosphorylation and phosphorylation of the pEY was measured as described in Examples 7 and 8.
(§3) The ECL signal in control wells produced by tyrosine kinases was compared to the wells containing inhibitor compounds. The signal produced from Mock was negligible.

Kit = target: T2, Kit (Mus musculus, UniProt P05532); test: Kinase inhibitor profiling, pEY phosphorylation; assay type: biochemical
T2 construct: specificity data for proteins generated from a library of eighteen full-length clones; biotin on random lysines (biotin-Lys-tRNA); host or cells: rabbit reticulocyte lysate, coupled transcription/translation (TnT, Promega)
Description: as §1, §2, §3

Kdr = target: T3, Kdr (Mus musculus, UniProt P35918); test: Kinase inhibitor profiling, pEY phosphorylation; assay type: biochemical
T3 construct: specificity data for proteins generated from a library of eighteen full-length clones; biotin on random lysines (biotin-Lys-tRNA); host or cells: rabbit reticulocyte lysate, coupled transcription/translation (TnT, Promega)
Description: as §1
(§4) The unbound components of the translation reaction (including any endogenous kinases) were removed by 3 washes with TT-buffer (25 mM Tris-HCl buffer pH 7.4 and 0.004% Triton), two five minutes washes with high-salt wash buffer (25 mM Tris-HCl buffer pH 7.4, 0.004% Triton, 1M NaCl and 5 mM DTT) and 3 washes with TT-buffer. […] The mixture was incubated at room temperature for 10 mm before starting the kinase reaction by adding 25 μl of 200 μM ATP in buffer A. This mixture was incubated with intermittent shaking at room temperature for 2 hours to overnight to allow (a) phosphorylation of the pEY substrate and (b) autophosphorylation of the immobilized kinases. Autophosphorylation and phosphorylation of the pEY was measured as described in Examples 7 and 8.
(§5) The ECL signal in control wells produced by tyrosine kinases was compared to the wells containing inhibitor compounds.

[1] = tested on: tyrosine kinases reported to be the target of each inhibitor; details: read-out: reported IC50 concentration (1× concentration); for the kinase reported to be the target of the inhibitor; cited from earlier work
EphB4 = target: T4, EphB4 (Mus musculus, UniProt P54761); test: Kinase inhibitor profiling, pEY phosphorylation; assay type: biochemical
T4 construct: specificity data for proteins generated from a library of eighteen full-length clones; host or cells: rabbit reticulocyte lysate, TnT coupled in vitro transcription/translation (cell-free)
T4 sequence (P54761 16-987): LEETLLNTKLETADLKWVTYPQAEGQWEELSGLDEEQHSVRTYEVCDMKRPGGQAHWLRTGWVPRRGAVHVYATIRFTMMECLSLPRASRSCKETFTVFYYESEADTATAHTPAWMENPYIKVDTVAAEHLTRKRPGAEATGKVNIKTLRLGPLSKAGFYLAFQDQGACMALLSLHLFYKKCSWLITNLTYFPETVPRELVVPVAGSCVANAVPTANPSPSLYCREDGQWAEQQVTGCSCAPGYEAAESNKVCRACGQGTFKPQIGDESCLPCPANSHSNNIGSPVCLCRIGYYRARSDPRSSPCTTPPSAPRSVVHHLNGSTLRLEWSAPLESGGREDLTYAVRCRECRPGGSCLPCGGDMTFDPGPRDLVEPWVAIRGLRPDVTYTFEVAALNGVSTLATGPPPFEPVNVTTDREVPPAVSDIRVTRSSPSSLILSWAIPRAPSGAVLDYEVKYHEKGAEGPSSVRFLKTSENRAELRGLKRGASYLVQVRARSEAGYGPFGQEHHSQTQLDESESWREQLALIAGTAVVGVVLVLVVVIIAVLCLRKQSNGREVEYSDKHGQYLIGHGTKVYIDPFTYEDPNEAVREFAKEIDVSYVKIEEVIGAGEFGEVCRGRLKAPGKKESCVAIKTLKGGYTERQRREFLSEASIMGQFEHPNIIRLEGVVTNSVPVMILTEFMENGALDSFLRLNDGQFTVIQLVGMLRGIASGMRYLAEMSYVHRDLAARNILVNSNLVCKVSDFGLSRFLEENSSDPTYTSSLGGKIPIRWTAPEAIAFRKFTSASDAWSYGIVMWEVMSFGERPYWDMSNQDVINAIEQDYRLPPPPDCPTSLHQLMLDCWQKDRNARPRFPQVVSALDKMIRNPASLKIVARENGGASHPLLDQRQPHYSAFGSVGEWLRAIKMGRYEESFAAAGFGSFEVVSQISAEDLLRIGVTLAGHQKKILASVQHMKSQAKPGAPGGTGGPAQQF
Description: as §1, §2, §3

BTK = target: T5, BTK (Homo sapiens, UniProt Q06187); test: Kinase inhibitor profiling, pEY phosphorylation; assay type: biochemical
T5 construct: specificity data for proteins generated from a library of eighteen full-length clones; host or cells: rabbit reticulocyte lysate, TnT coupled in vitro transcription/translation (cell-free)
Description: as §1, §4, §5

T2 sequence (P05532 25-979): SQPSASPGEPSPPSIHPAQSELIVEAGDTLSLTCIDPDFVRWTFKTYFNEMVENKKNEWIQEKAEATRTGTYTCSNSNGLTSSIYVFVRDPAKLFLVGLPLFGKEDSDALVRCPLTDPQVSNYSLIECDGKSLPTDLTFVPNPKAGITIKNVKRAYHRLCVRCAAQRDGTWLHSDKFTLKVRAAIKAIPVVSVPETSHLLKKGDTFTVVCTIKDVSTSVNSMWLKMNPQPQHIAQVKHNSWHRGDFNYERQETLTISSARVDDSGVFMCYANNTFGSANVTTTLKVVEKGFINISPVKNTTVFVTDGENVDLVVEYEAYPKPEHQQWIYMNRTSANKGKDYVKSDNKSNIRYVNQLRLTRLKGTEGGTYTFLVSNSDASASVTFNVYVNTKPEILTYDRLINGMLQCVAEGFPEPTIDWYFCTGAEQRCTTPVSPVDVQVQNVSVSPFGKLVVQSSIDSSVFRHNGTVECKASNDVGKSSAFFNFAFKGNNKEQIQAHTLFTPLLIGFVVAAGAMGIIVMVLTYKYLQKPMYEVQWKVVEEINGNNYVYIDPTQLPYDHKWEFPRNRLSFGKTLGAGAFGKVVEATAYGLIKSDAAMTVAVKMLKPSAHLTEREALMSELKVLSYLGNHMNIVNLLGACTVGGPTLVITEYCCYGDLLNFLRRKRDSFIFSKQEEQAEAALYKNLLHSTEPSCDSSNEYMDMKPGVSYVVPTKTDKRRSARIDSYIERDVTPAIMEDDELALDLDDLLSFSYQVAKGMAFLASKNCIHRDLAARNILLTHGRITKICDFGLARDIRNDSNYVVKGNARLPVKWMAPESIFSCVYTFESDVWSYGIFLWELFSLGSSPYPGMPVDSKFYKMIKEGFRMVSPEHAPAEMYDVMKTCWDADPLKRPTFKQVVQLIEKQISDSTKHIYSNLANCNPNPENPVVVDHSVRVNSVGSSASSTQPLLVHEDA
T5 sequence (Q06187 whole entry): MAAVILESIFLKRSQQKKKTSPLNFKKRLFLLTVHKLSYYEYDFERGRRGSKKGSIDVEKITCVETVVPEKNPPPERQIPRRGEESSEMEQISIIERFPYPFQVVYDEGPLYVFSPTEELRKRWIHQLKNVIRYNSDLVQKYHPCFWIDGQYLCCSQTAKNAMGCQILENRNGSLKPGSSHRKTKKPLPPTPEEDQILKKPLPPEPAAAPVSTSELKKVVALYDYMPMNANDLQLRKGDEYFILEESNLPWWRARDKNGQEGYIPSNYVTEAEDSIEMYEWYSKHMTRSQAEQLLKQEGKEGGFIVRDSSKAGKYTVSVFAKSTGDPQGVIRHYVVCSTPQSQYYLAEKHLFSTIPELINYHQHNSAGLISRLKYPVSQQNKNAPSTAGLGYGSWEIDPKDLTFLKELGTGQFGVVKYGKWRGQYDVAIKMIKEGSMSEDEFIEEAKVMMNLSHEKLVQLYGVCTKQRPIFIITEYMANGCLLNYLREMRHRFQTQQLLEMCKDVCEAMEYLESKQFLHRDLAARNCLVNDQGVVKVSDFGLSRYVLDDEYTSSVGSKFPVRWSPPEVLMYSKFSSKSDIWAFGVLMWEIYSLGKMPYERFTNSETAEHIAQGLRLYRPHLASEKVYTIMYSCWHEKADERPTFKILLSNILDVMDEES
T1 sequence (Q03142 17-799): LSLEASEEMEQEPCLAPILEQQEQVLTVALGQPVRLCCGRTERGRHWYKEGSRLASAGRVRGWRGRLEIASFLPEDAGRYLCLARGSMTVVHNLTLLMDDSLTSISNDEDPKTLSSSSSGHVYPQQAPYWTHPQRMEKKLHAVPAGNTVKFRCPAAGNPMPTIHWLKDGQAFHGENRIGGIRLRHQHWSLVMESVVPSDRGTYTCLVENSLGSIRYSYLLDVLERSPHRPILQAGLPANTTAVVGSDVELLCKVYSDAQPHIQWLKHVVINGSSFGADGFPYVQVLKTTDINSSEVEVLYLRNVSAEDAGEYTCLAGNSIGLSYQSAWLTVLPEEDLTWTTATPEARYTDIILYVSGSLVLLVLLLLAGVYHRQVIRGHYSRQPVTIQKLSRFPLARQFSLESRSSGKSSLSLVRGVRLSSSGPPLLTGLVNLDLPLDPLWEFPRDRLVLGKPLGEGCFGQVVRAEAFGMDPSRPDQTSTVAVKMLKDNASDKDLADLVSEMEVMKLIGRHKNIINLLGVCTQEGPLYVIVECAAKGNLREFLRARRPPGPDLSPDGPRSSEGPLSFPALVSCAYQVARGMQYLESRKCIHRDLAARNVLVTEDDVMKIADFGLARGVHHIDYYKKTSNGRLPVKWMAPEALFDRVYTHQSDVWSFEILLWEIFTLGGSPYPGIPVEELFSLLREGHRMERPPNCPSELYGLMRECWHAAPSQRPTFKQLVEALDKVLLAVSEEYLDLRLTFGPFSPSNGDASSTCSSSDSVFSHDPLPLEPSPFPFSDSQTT
T3 sequence (P35918 20-1345): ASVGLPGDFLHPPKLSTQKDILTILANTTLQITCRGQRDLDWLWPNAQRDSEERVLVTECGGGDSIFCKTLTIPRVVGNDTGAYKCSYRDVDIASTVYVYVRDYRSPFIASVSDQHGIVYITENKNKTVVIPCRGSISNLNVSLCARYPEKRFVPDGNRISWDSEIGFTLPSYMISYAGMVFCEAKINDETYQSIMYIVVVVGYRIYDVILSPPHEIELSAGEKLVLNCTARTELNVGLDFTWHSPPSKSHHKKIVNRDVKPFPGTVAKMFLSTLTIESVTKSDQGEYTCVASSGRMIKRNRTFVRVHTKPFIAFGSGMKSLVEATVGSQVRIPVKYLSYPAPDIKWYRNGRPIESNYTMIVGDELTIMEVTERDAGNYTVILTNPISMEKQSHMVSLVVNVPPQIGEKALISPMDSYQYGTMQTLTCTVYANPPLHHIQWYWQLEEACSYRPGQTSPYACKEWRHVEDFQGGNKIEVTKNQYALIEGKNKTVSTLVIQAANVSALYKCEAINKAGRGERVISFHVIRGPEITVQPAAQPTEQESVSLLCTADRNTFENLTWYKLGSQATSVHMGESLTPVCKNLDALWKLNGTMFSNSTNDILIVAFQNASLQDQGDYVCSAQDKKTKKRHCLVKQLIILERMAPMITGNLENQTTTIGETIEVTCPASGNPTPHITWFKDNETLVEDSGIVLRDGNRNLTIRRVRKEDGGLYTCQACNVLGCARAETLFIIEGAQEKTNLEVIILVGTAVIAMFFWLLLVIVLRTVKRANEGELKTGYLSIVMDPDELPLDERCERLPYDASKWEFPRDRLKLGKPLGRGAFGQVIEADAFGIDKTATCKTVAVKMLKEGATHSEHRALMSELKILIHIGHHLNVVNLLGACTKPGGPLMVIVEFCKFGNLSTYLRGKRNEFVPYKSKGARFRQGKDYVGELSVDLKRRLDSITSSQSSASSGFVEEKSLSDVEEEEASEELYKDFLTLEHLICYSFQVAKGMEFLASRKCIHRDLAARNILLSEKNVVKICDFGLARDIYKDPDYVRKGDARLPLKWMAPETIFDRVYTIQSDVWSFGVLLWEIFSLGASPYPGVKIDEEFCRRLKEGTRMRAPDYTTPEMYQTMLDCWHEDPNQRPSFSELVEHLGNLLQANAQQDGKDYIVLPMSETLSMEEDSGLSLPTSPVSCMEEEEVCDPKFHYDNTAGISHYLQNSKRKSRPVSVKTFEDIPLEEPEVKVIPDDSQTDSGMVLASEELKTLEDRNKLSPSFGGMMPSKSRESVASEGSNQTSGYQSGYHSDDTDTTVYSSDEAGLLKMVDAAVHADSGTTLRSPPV

Q: Which “Inhibition specificity towards pEY phosphorylation at 10X IC50, Fgfr4” value (Fgfr4) does the source give for `C/C(O)=C(\C#N)C(=O)Nc1cc(Br)ccc1Br` [LFM-A13] here?
A: M (medium inhibition (“M”=between 25 to 50% of the activity remaining))

Q: What about the “Inhibition specificity towards pEY phosphorylation at 10X IC50, Kit” value (Kit) of the same compound?
A: M (medium inhibition (“M”=between 25 to 50% of the activity remaining))

Q: And the “Inhibition specificity towards pEY phosphorylation at 10X IC50, Kdr” value (Kdr)?
A: L (low inhibition (“L”=between 50–75% of the activity remaining))

Q: And the IC50 [1]?
A: 17200 nM

Q: With `O=c1c(-c2ccc(O)cc2)coc2cc(O)cc(O)c12` [Genistein] as the compound, how does the “Inhibition specificity towards pEY phosphorylation at 10X IC50, EphB4” value (EphB4) read?
A: L (low inhibition (“L”=between 50–75% of the activity remaining))

Q: What about the “Inhibition specificity towards pEY phosphorylation at 10X IC50, Kit” value (Kit) of the same compound?
A: M (medium inhibition (“M”=between 25 to 50% of the activity remaining))

Q: For `CC(C)(C)c1cc(/C=C(\C#N)C(N)=S)cc(C(C)(C)C)c1O` [AG879], which “Inhibition specificity towards pEY phosphorylation at 10X IC50, BTK” value (BTK) is on record?
A: L (low inhibition (“L”=between 50–75% of the activity remaining))

Q: What about the IC50 [1] of the same compound?
A: 10000 nM

Q: With `N#C/C(=C/c1ccc(O)c(O)c1)C(=O)NCc1ccccc1` [AG-490] as the compound, how does the “Inhibition specificity towards pEY phosphorylation at 10X IC50, BTK” value (BTK) read?
A: L (low inhibition (“L”=between 50–75% of the activity remaining))

Q: What about the IC50 [1] of the same compound?
A: 100 nM

Q: For `COc1cc2ncc(-c3ccccc3)nc2cc1OC` [AG-1296], which “Inhibition specificity towards pEY phosphorylation at 10X IC50, EphB4” value (EphB4) is on record?
A: L (low inhibition (“L”=between 50–75% of the activity remaining))

Q: And the “Inhibition specificity towards pEY phosphorylation at 10X IC50, Kit” value (Kit)?
A: M (medium inhibition (“M”=between 25 to 50% of the activity remaining))

Q: And the IC50 [1]?
A: 1000 nM

Q: Which results are given for `O=C(O)c1cc(N(Cc2ccccc2O)Cc2cc(O)ccc2O)ccc1O` [Lavendustin A]?
A: Inhibition specificity towards pEY phosphorylation at 10X IC50, Kit (Kit): L (low inhibition (“L”=between 50–75% of the activity remaining)); IC50 [1]: 11 nM

Q: Which “Inhibition specificity towards pEY phosphorylation at 10X IC50, Kit” value (Kit) does the source give for `CC(C)(C)c1cc(C=C(C#N)C#N)cc(C(C)(C)C)c1O` [AG-17] here?
A: L (low inhibition (“L”=between 50–75% of the activity remaining))

Q: What about the IC50 [1] of the same compound?
A: 500 nM
